How the values were obtained:
[1] = system: Human immunodeficiency virus 1; assay: Antiviral activity against HIV-1 infected in human NCK45 cells assessed as inhibition of infection after 48 hrs by dual-reporter gene assay; format: functional, organism-based; settings: Human immunodeficiency virus 1, NCK45, 48 h
[2] = Cytotoxicity against human NCK45 cells at 1 uM; format: cell-based; settings: nck45, 1 µM
[3] = Cytotoxicity against human NCK45 cells at 10 uM; format: cell-based; settings: nck45, 10 µM

Structure (SMILES): CCC(=O)Nc1cc(CNc2c(C#N)c(C)nn2-c2ccc3ncccc3c2)cc(Cl)c1O
- EC50 [1]: > 10000 nM

Structure (SMILES): CCC(=O)Nc1cc(CNc2c(C#N)c(C)nn2-c2cccc(-c3ccccc3OC)c2)cc(Cl)c1O
- EC50 [1]: > 100 nM
- Activity [2]: Toxic

Structure (SMILES): CCC(=O)Nc1cc(CNc2c(C#N)c(C)nn2-c2cccc(-c3ccccc3C)c2)cc(Cl)c1O
- EC50 [1]: > 100 nM
- Activity [2]: Toxic

Structure (SMILES): CCC(=O)Nc1cc(CNc2c(C#N)c(C)nn2-c2cccc(-c3ccccc3Cl)c2)cc(Cl)c1O
- Activity [3]: Toxic
- EC50 [1]: 250 nM

Structure (SMILES): CCC(=O)Nc1cc(CNc2c(C#N)c(C)nn2-c2cccc(-c3cccc(OC)c3)c2)cc(Cl)c1O
- EC50 [1]: > 100 nM
- Activity [2]: Toxic

Structure (SMILES): CCC(=O)Nc1cc(CNc2c(C#N)c(C)nn2-c2cccc(-c3cccc(C)c3)c2)cc(Cl)c1O
- EC50 [1]: 58 nM
- Activity [2]: Toxic

Structure (SMILES): CCC(=O)Nc1cc(CNc2c(C#N)c(C)nn2-c2cccc(-c3cccc(Cl)c3)c2)cc(Cl)c1O
- EC50 [1]: > 100 nM
- Activity [2]: Toxic

Structure (SMILES): CCC(=O)Nc1cc(CNc2c(C#N)c(C)nn2-c2cccc(-c3ccc(OC)cc3)c2)cc(Cl)c1O
- EC50 [1]: > 100 nM
- Activity [2]: Toxic

Structure (SMILES): CCC(=O)Nc1cc(CNc2c(C#N)c(C)nn2-c2cccc(-c3ccc(C)cc3)c2)cc(Cl)c1O
- EC50 [1]: 97 nM
- Activity [2]: Toxic

Structure (SMILES): CCC(=O)Nc1cc(CNc2c(C#N)c(C)nn2-c2cccc(-c3ccc(Cl)cc3)c2)cc(Cl)c1O
- EC50 [1]: > 100 nM
- Activity [2]: Toxic

Structure (SMILES): CCC(=O)Nc1cc(CNc2c(C#N)c(C)nn2-c2cccc(-c3ccc(Cl)c(Cl)c3)c2)cc(Cl)c1O
- EC50 [1]: 47 nM
- Activity [2]: Toxic

Structure (SMILES): CCC(=O)Nc1cc(CNc2c(C#N)c(C)nn2-c2cccc(-c3ccc4ccccc4c3)c2)cc(Cl)c1O
- EC50 [1]: > 100 nM
- Activity [2]: Toxic

Structure (SMILES): CCC(=O)Nc1cc(CNc2c(C#N)c(C)nn2-c2cccc(-c3ccncc3)c2)cc(Cl)c1O
- Activity [3]: Toxic
- EC50 [1]: > 1000 nM

Structure (SMILES): CCC(=O)Nc1cc(CNc2c(C#N)c(C)nn2-c2cccc(-c3cnc4ccccc4c3)c2)cc(Cl)c1O
- EC50 [1]: > 100 nM
- Activity [2]: Toxic

Structure (SMILES): CCC(=O)Nc1cc(CNc2c(C#N)c(C)nn2-c2cccc(C(F)(F)F)c2)cc(Cl)c1O
- EC50 [1]: > 100 nM
- Activity [2]: Toxic

Structure (SMILES): CCC(=O)Nc1cc(CNc2c(C#N)c(C)nn2-c2cccc([N+](=O)[O-])c2)cc(Cl)c1O
- Activity [3]: Toxic
- EC50 [1]: > 1000 nM

Structure (SMILES): CCC(=O)Nc1cc(CNc2c(C#N)c(C)nn2-c2cccc(-c3ccccc3)c2)cc(Cl)c1O
- EC50 [1]: 130 nM
- Activity [2]: Toxic

Structure (SMILES): CCC(=O)Nc1cc(CNc2c(C#N)c(C)nn2-c2cccc(NC(C)=O)c2)cc(Cl)c1O
- EC50 [1]: > 10000 nM

Structure (SMILES): CCC(=O)Nc1cc(CNc2c(C#N)c(C)nn2-c2ccc(C)cc2)cc(Cl)c1O
- Activity [3]: Toxic
- EC50 [1]: > 1000 nM

Structure (SMILES): CCC(=O)Nc1cc(CNc2c(C#N)c(C)nn2-c2ccccc2C)cc(Cl)c1O
- Activity [3]: Toxic
- EC50 [1]: > 1000 nM

Structure (SMILES): CCC(=O)Nc1cc(CNc2c(C#N)c(C)nn2-c2cc(Cl)cc(Cl)c2)cc(Cl)c1O
- Activity [3]: Toxic
- EC50 [1]: > 1000 nM

Structure (SMILES): CCC(=O)Nc1cc(CNc2c(C#N)c(C)nn2-c2ccc3ccccc3c2)cc(Cl)c1O
- Activity [3]: Toxic
- EC50 [1]: > 1000 nM

Structure (SMILES): CCC(=O)Nc1cc(CNc2c(C#N)c(C)nn2-c2cccc3ccccc23)cc(Cl)c1O
- Activity [3]: Toxic
- EC50 [1]: > 1000 nM

Structure (SMILES): CCC(=O)Nc1cc(CNc2c(C#N)c(C)nn2-c2ccccn2)cc(Cl)c1O
- EC50 [1]: > 100 nM
- Activity [2]: Toxic

Structure (SMILES): CCC(=O)Nc1cc(CNc2c(C#N)c(C)nn2-c2cccnc2)cc(Cl)c1O
- EC50 [1]: > 10000 nM

Structure (SMILES): CCC(=O)Nc1cc(CNc2c(C#N)c(C)nn2-c2nccc3ccccc23)cc(Cl)c1O
- Activity [3]: Toxic
- EC50 [1]: > 1000 nM

Structure (SMILES): CCC(=O)Nc1cc(CNc2c(C#N)c(C)nn2-c2ccccc2)cc(C)c1O
- EC50 [1]: > 10000 nM

Structure (SMILES): CC(=O)Nc1cc(CNc2c(C#N)c(C)nn2-c2ccccc2)cc(Cl)c1O
- Activity [3]: Toxic
- EC50 [1]: > 1000 nM

Structure (SMILES): CCCC(=O)Nc1cc(CNc2c(C#N)c(C)nn2-c2ccccc2)cc(Cl)c1O
- EC50 [1]: 3300 nM

Structure (SMILES): CCCCCC(=O)Nc1cc(CNc2c(C#N)c(C)nn2-c2ccccc2)cc(Cl)c1O
- EC50 [1]: > 10000 nM

Structure (SMILES): CCNC(=O)c1cc(CNc2c(C#N)c(C)nn2-c2ccccc2)cc(Cl)c1O
- Activity [3]: Toxic
- EC50 [1]: > 1000 nM

Structure (SMILES): CCC(=O)Nc1cc(CNc2c(C#N)cnn2-c2ccccc2)cc(Cl)c1O
- Activity [3]: Toxic
- EC50 [1]: > 1000 nM

Structure (SMILES): CCC(=O)Nc1cc(CNc2cc(C)nn2-c2ccccc2)cc(Cl)c1O
- EC50 [1]: > 10000 nM

Structure (SMILES): CCC(=O)Nc1cc(CNc2c(C#N)c(C)nn2C)cc(Cl)c1O
- EC50 [1]: > 10000 nM

Structure (SMILES): CCC(=O)Nc1cc(CNc2c(C#N)c(C)nn2C2CCCCC2)cc(Cl)c1O
- Activity [3]: Toxic
- EC50 [1]: > 1000 nM

Structure (SMILES): CCC(=O)Nc1cc(CNc2c(C#N)c(CC)nn2-c2ccccc2)cc(Cl)c1O
- EC50 [1]: > 10000 nM

Structure (SMILES): CCC(=O)Nc1cc(CNc2c(C#N)c(-c3ccccc3)nn2-c2ccccc2)cc(Cl)c1O
- EC50 [1]: > 10000 nM

Structure (SMILES): CCC(=O)Nc1cc(CNc2c(C(=O)OC)c(C)nn2-c2ccccc2)cc(Cl)c1O
- Activity [3]: Toxic
- EC50 [1]: > 1000 nM

Structure (SMILES): CCC(=O)Nc1cc(CNc2c(C#N)c(C)nn2-c2cccc(OC)c2)cc(Cl)c1O
- EC50 [1]: > 10000 nM

Structure (SMILES): CCC(=O)Nc1cc(CNc2c(C#N)c(C)nn2-c2cccc(C)c2)cc(Cl)c1O
- Activity [3]: Toxic
- EC50 [1]: 370 nM

Structure (SMILES): CCC(=O)Nc1cc(CNc2c(C#N)c(C)nn2-c2cccc(Br)c2)cc(Cl)c1O
- EC50 [1]: > 100 nM
- Activity [2]: Toxic

Structure (SMILES): CCC(=O)Nc1cc(CNc2c(C#N)c(C)nn2-c2cccc(F)c2)cc(Cl)c1O
- Activity [3]: Toxic
- EC50 [1]: 330 nM

Structure (SMILES): CCC(=O)Nc1cc(/N=N/c2c(C#N)c(C)nn2-c2ccccc2)cc(Cl)c1O
- EC50 [1]: 320 nM

Structure (SMILES): CCC(=O)Nc1cc(/C=C/c2c(C#N)c(C)nn2-c2ccccc2)cc(Cl)c1O
- EC50 [1]: 440 nM

Structure (SMILES): CCC(=O)Nc1cc(CNc2c(C#N)c(C)nn2-c2ccccc2)cc(Cl)c1O
- EC50 [1]: 360 nM

Structure (SMILES): CCC(=O)Nc1cc(Cl)cc(CNc2c(C#N)c(C)nn2-c2ccccc2)c1
- EC50 [1]: > 10000 nM

Structure (SMILES): CCC(=O)Nc1cc(CNc2c(C#N)c(C)nn2-c2ccccc2)cc(Cl)c1OC
- EC50 [1]: > 10000 nM

Structure (SMILES): CCC(=O)Nc1cc(CNc2c(C#N)c(C)nn2-c2ccccc2)ccc1O
- EC50 [1]: > 10000 nM

Reference: ChEMBL document CHEMBL2407031, “Structure-activity relationship study of phenylpyrazole derivatives as a novel class of anti-HIV agents” (Bioorg Med Chem Lett, 2013)
